US5132293A, “Enzymic alteration of hair growth” (priority 1991, dated 1992)
Read-outs that look alike come from different tables or passages of the source.

Tests used:
[1] = test system: flank organ hair; assay: Hamster flank organ hair growth inhibition by topical inhibitor (hair mass, treated organ vs vehicle-treated organ); type: in vivo, male intact Golden Syrian hamsters; details: for Flank Organ Hair Mass, Treated: ± SE; for Hair Growth Inhibition: percent decrease vs vehicle-treated organ
Procedure: A series of compositions was prepared each containing a given concentration of specified inhibitor in the foregoing vehicle, as listed in Table 1 below.
Four groups (eight animals in each group) of male intact Golden Syrian hamsters were provided. These animals were considered acceptable models for human beard hair growth in that they display oval shaped flank organs, one on each side, each about 8 mm in major diameter, which grow thick black and coarse hair similar to human beard hair. These organs produce hair in response to androgens in the hamster. The flank organs of each hamster were depilated by applying a thioglycolate-based chemical depilatory (Surgex), and to one organ of each animal was applied 10 μL. of vehicle alone once a day, while to the other organ of each animal was applied an equal amount of vehicle containing inhibitor. After 14 such applications (Mon.-Fri.) over a period of 18 days, the flank organs were shaved and the amount of recovered hair (hair mass) from each was weighed. The extent of reduction in hair growth by the inhibitor was expressed as the percent decrease in hair mass on the organ treated with inhibitor as compared to the organ treated with vehicle alone. As a control, one group of eight animals had both flank organs of each animal treated with vehicle alone.
The same procedure was followed as in Example 1 except that the vehicle used for the compositions consisted of water alone.
The same test procedure was followed except that the compositions were applied to the hamster flank organs every day for fifteen successive days, at which time hair mass was measured; the results were as follows: […]

[2] = test system: sebaceous glands; details: cited from earlier work
[3] = test system: hair growth; details: intact males; Table 3, Group VI vs. Group X; cited from earlier work
[4] = test system: sebum excretion; details: topical, cited from earlier work
[5] = test system: hamster flank organ; details: topical application; cited from earlier work
[6] = test system: brain 4-aminobutyric acid levels; details: transformation catalyzed by mitochondrial monoamine oxidase; cited from earlier work
[7] = Table 1, 5% of each inhibitor in water/ethanol/glycol vehicle, 10 μL once a day, 14 applications over 18 days
[8] = Table 1, 5% of each inhibitor in water/ethanol/glycol vehicle, 14 applications over 18 days
[9] = Table 3, 5% of each inhibitor, Example 1 vehicle, every day for fifteen successive days

CCC(=NNC(=N)N)C(CC)=NNC(=N)N [DEGBG, diethylglyoxal bis(guanylhydrazone)]
Flank Organ Hair Mass, Treated ([1]; Table 2, 2.5% inhibitor, vehicle water alone, 14 applications over 18 days): 2.62 ± .15 mg
Hair Growth Inhibition ([1]; Table 2, 2.5% inhibitor, vehicle water alone): 15.9 ± 5.2%

CC(=O)[C@H]1CC[C@H]2[C@@H]3CCC4=CC(=O)CC[C@]4(C)[C@H]3CC[C@]12C [progesterone]
effectiveness of progesterone ([2]; female): effective in the female
effectiveness of progesterone ([2]; male): not in the male
effect on inhibition of hair growth [3]: doubtful
reducing sebum excretion rates ([4]; females): effective in reducing sebum excretion rates in females
reducing sebum excretion rates ([4]; males): without effect in males

CN(CCON)C[C@H]1O[C@@H](n2cnc3c(N)ncnc32)[C@H](O)[C@@H]1O [MAOEA, 5'-deoxy-5'-[N-methyl-N-(2-[aminooxy]ethyl)] aminoadenosine]
Flank Organ Hair Mass, Treated [1, 7]: 2.03 ± .18 mg
Hair Growth Inhibition [1, 8]: 29.4 ± 5.9%

NCCC[C@](N)(C(=O)O)C(F)F [DFMO, 2-(difluoromethyl)-ornithine]
Flank Organ Hair Mass, Treated [1, 7]: 0.99 ± .08 mg
Hair Growth Inhibition [1, 8]: 64.3 ± 3.7%
Flank Organ Hair Mass, Treated ([1]; Table 2, 5% inhibitor, vehicle water alone, 14 applications over 18 days): 2.70 ± .22 mg
Hair Growth Inhibition ([1]; Table 2, 5% inhibitor, vehicle water alone): 18.8 ± 3.7%
Hair Growth Inhibition [1, 9]: 44.4 ± 18.2%
Flank Organ Hair Mass, Treated [1, 9]: 0.49 ± .14 mg

CCC[C@]1(O)CC[C@H]2[C@@H]3CCC4=CC(=O)CC[C@]4(C)[C@H]3CC[C@@]21C [17β-hydroxy-17α-propylandrost-4-en-3-one]
reduction in hair growth of the hamster flank organ [5]: substantial reduction in hair growth
size of the flank organ [5]: reduction in the size of the flank organ

CC(C=NNC(=N)N)=NNC(=N)N [MGBG, methylglyoxal bis(guanylhydrazone)]
Flank Organ Hair Mass, Treated [1, 7]: 1.54 ± .22 mg
Hair Growth Inhibition [1, 8]: 40.3 ± 7.4%
Hair Growth Inhibition [1, 9]: 42.3 ± 8.2%
Flank Organ Hair Mass, Treated [1, 9]: 0.56 ± .11 mg

C#CC(N)CCCN (stereo not shown) [5-hexyne-1,4-diamine]
brain 4-aminobutyric acid levels [6]: increases in brain 4-aminobutyric acid levels
